Assay [1] has as its system Acinetobacter johnsonii. Put plainly: Activity of Acinetobacter johnsonii SCO1.
Assay [2] deals with Acinetobacter johnsonii. The experiment in a line: Ratio of kcat to Km for Acinetobacter johnsonii SCO1.
Assay [3] relates to Acinetobacter johnsonii. The experiment in a line: Antibacterial activity against Acinetobacter johnsonii 7037 expressing SCO1 by agar dilution technique. It counts as functional.
Assay [4] concerns Escherichia coli. Put plainly: Antibacterial activity against Escherichia coli DH10B by agar dilution technique. The assay is classed as functional.
Assay [5] has as its system Escherichia coli. Put plainly: Antibacterial activity against Escherichia coli DH10B expressing SCO1 by agar dilution technique. It counts as functional.
A short description of assay [6]: Inhibition of Acinetobacter johnsonii SCO1.

Converted amounts (≈) assume the structure as drawn.

In the case of `CC1(C)S[C@@H]2[C@H](NC(=O)Cc3ccccc3)C(=O)N2[C@H]1C(=O)O`, in the assay with Acinetobacter johnsonii [1], the Km came out at 20 µM and the turnover number (kcat) amounted to 150 s⁻¹. In addition, the Ratio with Acinetobacter johnsonii [2] stood at 7500 mM⁻¹ s⁻¹.
The corresponding values for `CC1(C)S[C@@H]2[C@H](NC(=O)[C@H](N)c3ccccc3)C(=O)N2[C@H]1C(=O)O` are 40 µM, 270 s⁻¹ and 6700 mM⁻¹ s⁻¹.
As to `C[C@@H](O)[C@H]1C(=O)N2C(C(=O)O)=C(S[C@@H]3CN[C@H](C(=O)N(C)C)C3)[C@H](C)[C@H]12`, the kcat in the assay with Acinetobacter johnsonii [1] was under 0.01 s⁻¹.
Regarding `CC1(C)S[C@@H]2[C@H](NC(=O)[C@H](N)c3ccc(O)cc3)C(=O)N2[C@H]1C(=O)O` [AMOXICILLIN], the MIC was over 512 µg/mL against Acinetobacter johnsonii [3], 2 µg/mL (≈ 5.47 µM) in the assay on Escherichia coli [4] and over 512 µg/mL in the assay with Escherichia coli [5].
In the case of `C[C@H]1[C@H](NC(=O)/C(=N\OC(C)(C)C(=O)O)c2csc(N)n2)C(=O)N1S(=O)(=O)O` [AZTREONAM], in the assay with Acinetobacter johnsonii [1], the catalytic constant (kcat) was under 0.01 s⁻¹. The MIC with Acinetobacter johnsonii [3] was over 512 µg/mL.
As for `CO/N=C(\C(=O)N[C@@H]1C(=O)N2C(C(=O)[O-])=C(C[N+]3(C)CCCC3)CS[C@H]12)c1csc(N)n1` [CEFEPIME], in the assay on Acinetobacter johnsonii [1], the Km was over 2000 µM and the turnover number (kcat) was over 1.5 s⁻¹. In the assay on Acinetobacter johnsonii [3], this compound returned a minimal inhibitory concentration (MIC) of over 512 µg/mL. In the assay with Acinetobacter johnsonii [2], the Ratio stood at 0.8 mM⁻¹ s⁻¹. This compound gave an MIC against Escherichia coli [5] of 0.12 µg/mL (≈ 0.25 µM).
As for `CO/N=C(\C(=O)N[C@@H]1C(=O)N2C(C(=O)O)=C(COC(C)=O)CS[C@H]12)c1csc(N)n1` [CEFOTAXIME], in the assay on Acinetobacter johnsonii [1], the Km came to 2000 µM. For the same compound, the kcat in the assay with Acinetobacter johnsonii [1] came to 0.1 s⁻¹. For the same compound, the MIC was over 512 µg/mL in the assay on Acinetobacter johnsonii [3], 0.12 µg/mL (≈ 0.263 µM) against Escherichia coli [4] and 0.25 µg/mL (≈ 0.549 µM) in the assay on Escherichia coli [5]. Further, the Ratio with Acinetobacter johnsonii [2] amounted to 0.05 mM⁻¹ s⁻¹.
`CO[C@@]1(NC(=O)Cc2cccs2)C(=O)N2C(C(=O)O)=C(COC(N)=O)CS[C@@H]21` [CEFOXITIN]: the catalytic constant (kcat) in the assay on Acinetobacter johnsonii [1] was under 0.01 s⁻¹. Also, the figures for the MIC against Acinetobacter johnsonii [3], in the assay on Escherichia coli [4] and in the assay with Escherichia coli [5] were over 512 µg/mL, 4 µg/mL (≈ 9.36 µM) and 4 µg/mL (≈ 9.36 µM), respectively.
`CC(C)(O/N=C(\C(=O)N[C@@H]1C(=O)N2C(C(=O)[O-])=C(C[n+]3ccccc3)CS[C@H]12)c1csc(N)n1)C(=O)O` [CEFTAZIDIME]: the Km in the assay with Acinetobacter johnsonii [1] is 600 µM. The kcat in the assay on Acinetobacter johnsonii [1] came to 0.3 s⁻¹. Also, the minimum inhibitory concentration (MIC) in the assay on Acinetobacter johnsonii [3] is over 512 µg/mL; in the assay on Escherichia coli [4] it was 0.06 µg/mL (≈ 0.11 µM); against Escherichia coli [5] it was 0.5 µg/mL (≈ 0.915 µM). In the assay on Acinetobacter johnsonii [2], the Ratio is 0.5 mM⁻¹ s⁻¹.
`CO/N=C(\C(=O)N[C@@H]1C(=O)N2C(C(=O)O)=C(COC(N)=O)CS[C@H]12)c1ccco1` [CEFUROXIME]: the Michaelis constant (Km) in the assay on Acinetobacter johnsonii [1] turned out to be 650 µM. In addition, in the assay with Acinetobacter johnsonii [1], the catalytic constant (kcat) is 0.05 s⁻¹. Also, the minimal inhibitory concentration (MIC) was over 512 µg/mL in the assay with Acinetobacter johnsonii [3], 2 µg/mL (≈ 4.71 µM) against Escherichia coli [4] and 4 µg/mL (≈ 9.43 µM) in the assay on Escherichia coli [5]. The Ratio in the assay on Acinetobacter johnsonii [2] was determined as 0.08 mM⁻¹ s⁻¹.
With `CC(=O)OCC1=C(C(=O)O)N2C(=O)[C@@H](NC(=O)Cc3cccs3)[C@H]2SC1` [CEPHALOTHIN], the Michaelis constant (Km) with Acinetobacter johnsonii [1] is 120 µM. Moreover, the kcat in the assay with Acinetobacter johnsonii [1] stood at 0.1 s⁻¹. For the same compound, the MIC was over 512 µg/mL against Acinetobacter johnsonii [3], 2 µg/mL (≈ 5.04 µM) against Escherichia coli [4] and 8 µg/mL (≈ 20.2 µM) against Escherichia coli [5]. Also, in the assay with Acinetobacter johnsonii [2], the Ratio came out at 1 mM⁻¹ s⁻¹.
As for `O=C(O)[C@H]1/C(=C/CO)O[C@@H]2CC(=O)N21` [CLAVULANIC ACID], in assay [6], inhibition was half-maximal at 300 nM (IC50).
Turning to `C[C@@H](O)[C@H]1C(=O)N2C(C(=O)O)=C(SCCNC=N)C[C@H]12` [IMIPENEM ANHYDROUS], in the assay with Acinetobacter johnsonii [1], the Michaelis-Menten constant (Km) was 3800 µM and the kcat was determined as 0.03 s⁻¹. This compound yielded a minimal inhibitory concentration (MIC) in the assay on Acinetobacter johnsonii [3] of 0.12 µg/mL (≈ 0.401 µM). The Ratio in the assay on Acinetobacter johnsonii [2] came to 0.008 mM⁻¹ s⁻¹.
For `CCN1CCN(C(=O)N[C@@H](C(=O)N[C@@H]2C(=O)N3[C@@H]2SC(C)(C)[C@@H]3C(=O)O)c2ccccc2)C(=O)C1=O` [PIPERACILLIN], in the assay with Acinetobacter johnsonii [1], the Michaelis-Menten constant (Km) amounted to 10 µM. The turnover number (kcat) in the assay on Acinetobacter johnsonii [1] was 0.4 s⁻¹. The MIC against Acinetobacter johnsonii [3] amounted to 64 µg/mL (≈ 124 µM); in the assay on Escherichia coli [4], 1 µg/mL (≈ 1.93 µM); against Escherichia coli [5], 128 µg/mL (≈ 247 µM). In addition, the Ratio in the assay with Acinetobacter johnsonii [2] was 40 mM⁻¹ s⁻¹.
As to `C[C@]1(Cn2ccnn2)[C@H](C(=O)O)N2C(=O)C[C@H]2S1(=O)=O` [TAZOBACTAM], half-maximal inhibition in assay [6] (IC50) required 1200 nM.
As for `CC1(C)S[C@@H]2[C@H](NC(=O)[C@H](C(=O)O)c3ccsc3)C(=O)N2[C@H]1C(=O)O` [TICARCILLIN], the Km in the assay on Acinetobacter johnsonii [1] is 80 µM. Also, the kcat in the assay with Acinetobacter johnsonii [1] is 35 s⁻¹. Besides, the minimum inhibitory concentration (MIC) with Acinetobacter johnsonii [3] was over 512 µg/mL; with Escherichia coli [4], 2 µg/mL (≈ 5.2 µM); with Escherichia coli [5], over 512 µg/mL. Further, the Ratio with Acinetobacter johnsonii [2] amounted to 450 mM⁻¹ s⁻¹.

For the origin of these results see ChEMBL document CHEMBL1145470, “Identification of the novel narrow-spectrum beta-lactamase SCO-1 in Acinetobacter spp. from Argentina” (Antimicrob Agents Chemother, 2007).
